{"source": "patent US6943147B2", "about": "“Cancer treatment using proANP peptides” (University of South Florida, priority 2003, dated 2005)", "key": {"[1]": {"system": "pancreatic adenocarcinoma cell line, ATCC number CRL-2119", "experiment": "Number of pancreatic adenocarcinoma cells in culture, counted by microscope", "format": "cell-based, human", "description": "The pancreatic adenocarcinoma cell line, ATCC number CRL-2119, was derived in 1985 from a nude mouse xenograft of a primary tumor removed from the head of the pancreas. It is a moderate to well-differentiated pancreatic adenocarcinoma of ductal origin. These pancreatic adenocarcinoma cells are stimulated to proliferate in culture by insulin, insulin-like growth factor I (IGF-I), epidermal growth factor (EGF), and transforming growth factor alpha (TGF alpha). These adenocarcinoma cells contain significant concentrations of tumor-associated antigens CEA, CA 125, and CA 19-9. In culture, these adenocarcinoma cells form monolayers of morphologically heterogeneous polar epithelial cells. These cells are tumorgenic in that they form tumors in athymic nude mice at the site of inoculation that are histologically similar to the tumor of origin.\nPropagation of these cells was in Dulbecco's modified Eagle's plus Ham's F12-A 1:1 mixture of Dulbecco's modified Eagle's medium and Ham's F12 medium containing 1.2 g/L of sodium bicarbonate (Sigma Chemical Co., St. Louis, Mo.) supplemented with 15 mM HEPES and fetal bovine serum, 10%, at a temperature of 37° C. as recommended by the ATCC.\nThese pancreatic adenocarcinoma cells were subcultured (passaged) by removing spent (i.e., old) medium by aspiration, and then adding calcium and magnesium free Hank's Balanced Salt Solution with 0.25% trypsin and 0.03% ethylenediaminetetracetic acid (EDTA). The culture was allowed to sit at room temperature for 2 to 5 minutes. Fresh medium was added to the adenocarcinoma cells which were dispensed into new flasks, with subculture every 6 to 8 days. The growth medium was changed every three days.\nAfter these adenocarcinoma cells were subcultured for 24 hours, they were then seeded to coverslips and transferred to 24 microwell plates (NUCOLON, Roskilde Denmark), with 1 ml Dulbeco Modified Eagle's (DME)/[…] nutrient culture media (Sigma Chemical Co.) with 10% fetal bovine serum (Atlanta Biologicals, Norcross, Ga.). After 24 hours, wells were washed twice with Dulbecco's Modified Eagle's/Ham's F12 with 0.1% bovine serum albumin (Sigma-Aldrich, St. Louis, Mo.) and allowed to incubate in this serum free medium for an additional 24 hour period of serum deprivation. Serum-free media was utilized to remove all variables (EGF, etc.) present in serum in order that interpretation of any data obtained would be straightforward. After 24 hours of serum deprivation, media volume was reduced to 250 μL per well with or without the respective peptide hormones at their 1 μM concentrations (1% of this volume). The adenocarcinoma cells were then incubated for various periods of time (24, 48, 72, and 96 hours).At the end of the above time periods, hematoxylin was added for 5 minutes to make the cells more visible for counting, and then they were washed for 5 minutes. The coverslips were then placed face down on microscope slides with the addition of 6 μl of histologic grade phosphate buffered saline (PBS)/I-glycine that had been filtered immediately before use with a 0.22 μm polyethersulfone, nonpyrogenic, sterile, low protein binding membrane (Corning 43117, Corning Inc., Corning, N.Y.). The number of adenocarcinoma cells were then counted with a cell counter evaluating ten fields of the microscope slide at 40× along the X-axis with an Olympus BH-2 microscope (Atlanta, Ga.). This evaluation was repeated on six separate occasions with the number of adenocarcinoma cells reflecting 60 observations for each group, i.e., 60 observations for controls and 60 observations for each of the four groups with respective peptide hormones. The only variable in this investigation was whether one of the four peptide hormones was added to the pancreatic adenocarcinoma cells. Otherwise all the adenocarcinoma cells were treated the same, i.e., with same culture medium, time of incubation, and processing of cells for the various investigations. […]"}, "[2]": {"system": "human pancreatic adenocarcinomas", "experiment": "Growth of human pancreatic adenocarcinomas in vivo in athymic mice", "design": "species or system NCr athymic nude mice", "description": "The animals used in the whole animal studies were NCr athymic nude mice. The NCr athymic outbred stock is the standard athymic model for National Cancer Institute (NCI) studies as well as many pharmaceutical and institutional oncology screening programs. The nude gene in homozygous (nu/nu) mice causes the lack of fur and an abnormal thymus. The deficiency in T cell function allows athymic mice to accept and grow xenografts as well as allograftsof normal and malignant tissues. Heterozygous (nu/+) animals carry the recessive nude gene on one chromosome only and therefore have a normal thymus triggered immune system. NCr-nu breeder stock was obtained from the NCI in 1993 after several years of random breeding. It was hysterectomy derived to achieve germfree status prior to its introduction into IBU colonies. This outbred stock has both BALB/c inbred and NIH(S) outbred stock in its genetic background. The homozygotes (nu/nu) used for the proposed investigations are albino animals with the model number of NCRNU-M from […] also being called Tac:Cr:(NCr)-Foxn1^nu: Six week old nude mice were utilized for these studies as they weight approximately 20 grams at this time period and the subcutaneous pumps used to infuse the respective four atrial natriuretic peptides were designed for 20 gram and larger mice. These mice accept malignant tissues. After one week of accliminization to their new surroundings, the mice have 1×10^6 of the adenocarcinoma cells placed under the skin on their backs. […] Tumor volume was calculated by the formula V (volume)=a×b^2/2 where “a” is the largest superficial diameter and b is the smallest superficial diameter. […] When the tumors first became palpable their volume was recorded and then an osmotic pump (Alzet Model 1002) containing either 0.9% saline (control infusion) or one of the respective peptide hormones in 0.9% saline was placed subcutaneously between the shoulder blades under anesthesia (pentobarbital 40 mg/kg body wt intraperitoneally). […]"}}}
{"substance": "vessel dilator: a.a. 31-67 of the 126 a.a. ANP prohormone; peptide hormone from Peninsula Laboratories", "values": [{"measurement": "decrease in the number of adenocarcinoma cells", "setting": "[1]; 1 μM, 24 hours, vs untreated cells", "result": 65, "unit": "%"}, {"measurement": "number of adenocarcinoma cells", "setting": "[1]; 1 μM, 24 hours, untreated 183.4+/−8", "result": "63.8+/−4 cells per high powered field"}, {"measurement": "number of cancer cells compared to controls", "setting": "[1]; 1 μM, 48 hours", "result": 68, "unit": "%"}, {"measurement": "decrease in the number of adenocarcinoma cells", "setting": "[1]; 1 μM, 72 hours, vs untreated cells", "result": 70, "unit": "%"}, {"measurement": "decrease in the number of adenocarcinoma cells", "setting": "[1]; 1 μM, 96 hours, vs untreated cells", "result": 70, "unit": "%"}, {"measurement": "decrease in the number of adenocarcinoma cells", "setting": "[1]; time not stated", "result": 70, "unit": "%"}, {"measurement": "side effects", "setting": "[2]; 139 ng/min/kg infusion in whole animals", "result": "no side effects"}, {"measurement": "growth of the human adenocarcinomas", "setting": "[2]; 139 ng/min/kg of body weight, subcutaneous infusion pump, 14 days, n=14", "result": "stopped the growth"}, {"measurement": "change in tumor volume during the two weeks of infusion", "setting": "[2]; 139 ng/min/kg, 14 days, saline-treated increased 100 mm^3", "result": "no increase in volume"}]}
